Measurements taken from US11970483B2, “Heterocyclic compound” (Takeda Pharmaceutical Company Limited, priority 2018, dated 2024).

Legend:
MDR1 = molecular target: T1, MDR1 (Homo sapiens, UniProt P08183); experiment: MDR1 membrane permeability test; format: in vitro ADME; settings: human MDR1-expressing LLC-PK1 cells, 10 μmol/L test compound, pH 7.4, read-out: Efflux ratio (ER)
T1 construct: expressed in transfected cells; host or cells: LLC-PK1 cells (porcine kidney)
Protocol: MDR1 membrane permeability test
When MDR1 is expressed in excess in LLC-PK1 cell, which is a polar cell, MDR1 is localized in apical membrane (A), thus promoting transcellular transport from the basement membrane side (B) toward direction A. When a ratio to the transcellular transport in the opposite direction is taken and a ratio to a control cell in which a mock vector has been introduced is further taken, an efflux ratio of MDR1 to simple diffusion (corrected efflux ratio) is calculated. Similarly, when a brain/plasma concentration ratio in Mdr1(−/−) mouse is divided by a brain/plasma concentration ratio in wild-type mouse, an efflux ratio of Mdr1 to simple diffusion in blood-brain barrier (BBB) (Kp, brain ratio, higher value means lower central nervous system permeability) is calculated. Adachi Y. et al. (Reference 1) has reported a positive correlation between corrected efflux ratio and Kp, brain ratio (FIG. 5(C)), and efflux ratio in MDR1 expressing cell and Kp, brain ratio (FIG. 5(B)).
To confirm the central nervous system permeability of the compounds of the present invention, a MDR1 membrane permeability test was performed by the following method.
Digoxin and lucifer yellow (LY) were purchased from Sigma-Aldrich, Diclofenac, colchicine and alprenolol were purchased from Wako Pure Chemical Industries, Ltd., and other reagents used were commercially available products of special grade.
Human MDR1-expressing LLC-PK1 cells were cultured according to the report of Takeuchi et al. (Reference 2). Human MDR1-expressing LLC-PK1 cells were cultured in 10% fetal bovine serum (Invitrogen), 500 μg/ml G418 (Invitrogen), 150 ng/ml colchicine-containing M199 medium (Invitrogen) under 5% CO2 conditions at 37° C.
Transcellular transport was performed according to the report of Sugimoto et al. (Reference 3). The cells were cultured for 3 days on HTS Transwell (registered trademark) 96 well permeable support (pore size 0.4 μm, 0.143 cm^2 surface area, Corning Life Sciences) having polyethylene terephthalate membrane on which the cells had been seeded at 3.45×10^4 cells/well. […] After 1 hr, the sample was collected from the side opposite to the side where the drug solution was added, and the concentration of the test compound was measured by LC-MS/MS. […]
LY was measured by a fluorescence plate reader (Fluoroskan Ascent FL).
Papp, A to B and Papp, B to A (apparent permeability) were calculated from the formula (1), and the efflux ratio (ER) was calculated from the formula (2). […]

[1] = molecular target: T2, human M1 receptor (hCHRM1) (Homo sapiens, UniProt P11229); experiment: Measurement of M1 receptor positive allosteric modulator (M1PAM) activity (IP1 HTRF, in presence of EC20 acetylcholine); format: cell-based; settings: CHO-K1 cells stably expressing hCHRM1; acetylcholine at EC20 concentration; IP1 readout
T2 construct: expressed in transfected cells
T2 sequence (P11229 1-460): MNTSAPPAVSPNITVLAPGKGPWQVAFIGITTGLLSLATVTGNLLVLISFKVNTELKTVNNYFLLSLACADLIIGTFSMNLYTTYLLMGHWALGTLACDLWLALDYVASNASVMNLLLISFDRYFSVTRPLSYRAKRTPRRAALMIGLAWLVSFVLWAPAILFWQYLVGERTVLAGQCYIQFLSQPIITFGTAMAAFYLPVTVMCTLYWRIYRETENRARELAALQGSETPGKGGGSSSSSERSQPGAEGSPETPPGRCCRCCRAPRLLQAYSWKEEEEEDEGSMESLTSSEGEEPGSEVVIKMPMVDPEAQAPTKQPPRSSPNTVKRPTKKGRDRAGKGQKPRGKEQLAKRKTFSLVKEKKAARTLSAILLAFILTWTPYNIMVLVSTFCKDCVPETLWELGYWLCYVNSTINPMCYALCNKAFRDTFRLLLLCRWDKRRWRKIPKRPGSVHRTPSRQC
Protocol: Measurement of M1 Receptor Positive Allosteric Modulator (M1PAM) Activity
The activity of a test compound in the presence of acetylcholine at an EC20 concentration affording about 20% action of the maximum activity was measured as PAM activity.
The method therefor is as follows. To a 384-well white plate (Greiner) was added 4 μL of the test compound diluted with IP1 Stimulation buffer (CisBio) containing 0.1% fatty acid-free BSA containing 80 nM acetylcholine. Freeze stock of CHO-K1 cells stably expressing human M1 receptor (hCHRM1) was prepared with IP1 Stimulation buffer (CisBio) containing 0.1% fatty acid-free BSA, 4 μL thereof was added (10,000 cells/well) and the mixture was cultured in a 5% CO2 incubator at 37° C. for 1 hr. 4 μL of a solution (CisBio) containing IP1-d2 and Anti-IP1-cryptate Tb conjugate was added, the mixture was incubated at room temperature for 1 hr, and the time-resolved fluorescence signal was measured on an Envision plate reader (PerkinElmer). The activity (%) of the test compound was calculated by defining the value when acetylcholine was added at the final concentration of 20 μM as 100% and the value when DMSO was added instead of the test compound under acetylcholine-free conditions as 0%, and the EC50 value was calculated as a value of 50% of the concentration dependence curve of the test compound.

Male SD rats = experiment: Rat defecation experiment; format: in vivo; settings: oral, mean±standard error
Protocol: Rat Defecation Experiment
Male SD rats (5-6 weeks old) were used after an acclimation period for about 1 week. A test drug (1 mg/kg or 3 mg/kg) was suspended in 0.5% methylcellulose solution and orally administered at a volume of 5 mL/kg, and the number of feces 2 hr later was counted. Only 0.5% methylcellulose was administered to a solvent administration group.

T1 sequence (P08183 whole entry): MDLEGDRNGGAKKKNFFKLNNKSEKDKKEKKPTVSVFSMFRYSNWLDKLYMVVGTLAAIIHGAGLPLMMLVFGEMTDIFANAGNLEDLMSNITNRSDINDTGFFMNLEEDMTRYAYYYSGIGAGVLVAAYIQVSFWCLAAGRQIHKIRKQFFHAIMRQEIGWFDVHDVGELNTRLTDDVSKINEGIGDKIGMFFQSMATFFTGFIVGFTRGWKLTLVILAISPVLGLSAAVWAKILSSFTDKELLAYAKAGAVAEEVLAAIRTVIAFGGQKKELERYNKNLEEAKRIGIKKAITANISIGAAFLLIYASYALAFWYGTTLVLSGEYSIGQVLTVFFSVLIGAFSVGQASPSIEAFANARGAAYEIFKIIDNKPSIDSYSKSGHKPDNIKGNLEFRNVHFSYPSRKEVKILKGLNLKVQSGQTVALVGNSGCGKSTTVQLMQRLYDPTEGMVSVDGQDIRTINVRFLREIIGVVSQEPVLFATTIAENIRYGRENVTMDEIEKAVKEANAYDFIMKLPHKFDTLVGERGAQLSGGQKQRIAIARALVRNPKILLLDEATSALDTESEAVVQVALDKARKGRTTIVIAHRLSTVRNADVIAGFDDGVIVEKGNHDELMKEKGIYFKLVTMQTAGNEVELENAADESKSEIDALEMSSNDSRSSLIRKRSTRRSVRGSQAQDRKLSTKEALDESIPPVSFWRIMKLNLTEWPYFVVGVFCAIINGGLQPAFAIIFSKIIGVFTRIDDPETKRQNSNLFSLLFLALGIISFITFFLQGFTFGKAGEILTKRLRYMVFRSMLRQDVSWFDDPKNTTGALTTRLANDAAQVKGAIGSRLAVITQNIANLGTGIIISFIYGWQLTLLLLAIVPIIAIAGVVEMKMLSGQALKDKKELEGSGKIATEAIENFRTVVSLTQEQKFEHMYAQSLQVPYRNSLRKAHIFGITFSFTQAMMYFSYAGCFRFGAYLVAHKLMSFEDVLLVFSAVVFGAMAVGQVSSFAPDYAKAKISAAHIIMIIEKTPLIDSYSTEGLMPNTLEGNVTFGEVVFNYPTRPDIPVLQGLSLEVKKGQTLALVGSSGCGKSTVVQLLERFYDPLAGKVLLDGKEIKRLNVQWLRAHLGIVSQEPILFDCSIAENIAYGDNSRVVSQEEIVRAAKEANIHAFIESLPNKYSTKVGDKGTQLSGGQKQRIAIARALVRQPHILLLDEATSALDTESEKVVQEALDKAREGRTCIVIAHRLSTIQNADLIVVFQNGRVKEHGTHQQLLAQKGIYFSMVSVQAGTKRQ

SMILES	efflux ratio at 1 h, 10 μmol/L (MDR1)	EC50 [1] [nM]	number of feces 2 hr later (Male SD rats; 1 mg/kg)	number of feces 2 hr later (Male SD rats; 3 mg/kg)
Cc1c(Cc2ccc(C(=O)NCC(=O)N(C)C)c(F)c2)cc(C(=O)N[C@H]2CCOC[C@@H]2O)c2c1CCO2 [Example 28, 1,5-anhydro-2,3-dideoxy-3-({5-[(4-{[2-(dimethylamino)-2-oxoethyl]carbamoyl}-3-fluorophenyl)methyl]-4-methyl-2,3-dihydro-1-benzofuran-7-carbonyl}amino)-L-threo-pentitol]	12	8.6	8.0 ± 1.0	8.1 ± 1.4
COCCNC(=O)c1ccc(Cc2cc(C(=O)N[C@H]3CCOC[C@@H]3O)c3c(c2C)CCO3)cc1F [Example 27, 1,5-anhydro-2,3-dideoxy-3-{[5-({3-fluoro-4-[(2-methoxyethyl)carbamoyl]phenyl}methyl)-4-methyl-2,3-dihydro-1-benzofuran-7-carbonyl]amino}-L-threo-pentitol]	6.2	14	–	–
Cc1c(Cc2ccc(C(=O)NC[C@H]3CCCO3)c(F)c2)cc(C(=O)N[C@H]2CCOC[C@@H]2O)c2c1CCO2 [Example 29, 1,5-anhydro-2,3-dideoxy-3-[(5-{[3-fluoro-4-({[(2R)-oxolan-2-yl]methyl}carbamoyl)phenyl]methyl}-4-methyl-2,3-dihydro-1-benzofuran-7-carbonyl)amino]-L-threo-pentitol]	6	11	5.0 ± 0.8	9.0 ± 0.7
Cc1c(Cc2ccc(-c3cn(C)nn3)cc2)cc(C(=O)N[C@H]2CCOC[C@@H]2O)c2c1CCO2 [Example 1, 1,5-anhydro-2,3-dideoxy-3-[(4-methyl-5-{[4-(1-methyl-1H-1,2,3-triazol-4-yl)phenyl]methyl}-2,3-dihydro-1-benzofuran-7-carbonyl)amino]-L-threo-pentitol]	3	7.9	–	–
